Results taken from patent US20170347654A1, “Herbicidal Compounds” (SYNGENTA PARTICIPATIONS AG, priority 2014, published 2017).

How the values were obtained:
Test in all cases: Post-emergence efficacy (glasshouse)
Format in all cases: in vivo
Details in all cases: evaluated after 13 days
[1] = system: Amaranthus retoflexus (AMARE)
Procedure: (§1) Seeds of a variety of test species (such as, for example, Solanum nigrum (SOLNI), Amaranthus retoflexus (AMARE), Setaria faberi (SETFA), Echinochloa crusgalli (ECHCG), Ipomoea hederacea (IPOHE) and Lolium perenne (LOLPE)) are sown in standard soil in pots. After 8 days cultivation (post-emergence) under controlled conditions in a glasshouse (at 24/16° C., day/night; 14 hours light; 65% humidity), the plants are sprayed with an aqueous spray solution derived from the formulation of the technical active ingredient in acetone/water (50:50) solution containing 0.5% Tween 20 (polyoxyethylene sorbitan monolaurate, CAS RN 9005-64-5). Compounds are applied at 1000 and 62.5 g/ha. The test plants are then grown under controlled conditions in a glasshouse (at 24/16° C., day/night; 14 hours light; 65% humidity) and watered twice daily. After 13 days, the test is evaluated for the percentage damage caused to the plant. The biological activities are assessed on a five point scale (5=80-100%; 4=60-79%; 3=40-59%; 2=20-39%; 1=0-19%).

[2] = system: Echinochloa crusgalli (ECHCG)
Procedure: as §1

[3] = system: Ipomoea hederacea (IPOHE)
Procedure: as §1

Lolium perenne (LOLPE) = system: Lolium perenne (LOLPE)
Procedure: as §1

Setaria faberi (SETFA) = system: Setaria faberi (SETFA)
Procedure: as §1

Solanum nigrum (SOLNI) = system: Solanum nigrum (SOLNI)
Procedure: as §1

Row | Structure (SMILES) | percentage damage caused to the plant, AMARE (five point scale) ([1]; 62.5 g/ha) | percentage damage caused to the plant, AMARE (five point scale) ([1]; 1000 g/ha) | percentage damage caused to the plant, ECHCG (five point scale) ([2]; 62.5 g/ha) | percentage damage caused to the plant, ECHCG (five point scale) ([2]; 1000 g/ha) | percentage damage caused to the plant, IPOHE (five point scale) ([3]; 62.5 g/ha) | percentage damage caused to the plant, IPOHE (five point scale) ([3]; 1000 g/ha) | percentage damage caused to the plant, LOLPE (five point scale) (Lolium perenne (LOLPE); 62.5 g/ha) | percentage damage caused to the plant, LOLPE (five point scale) (Lolium perenne (LOLPE); 1000 g/ha) | percentage damage caused to the plant, SETFA (five point scale) (Setaria faberi (SETFA); 62.5 g/ha) | percentage damage caused to the plant, SETFA (five point scale) (Setaria faberi (SETFA); 1000 g/ha) | percentage damage caused to the plant, SOLNI (five point scale) (Solanum nigrum (SOLNI); 62.5 g/ha) | percentage damage caused to the plant, SOLNI (five point scale) (Solanum nigrum (SOLNI); 1000 g/ha)
1 | Cn1c(=O)c(-c2c(F)ccc(Cl)c2OCc2ccccc2)c(O)c2scnc21 [Compound 1.017] | 4 (4=60-79%) | 5 (5=80-100%) | 2 (2=20-39%) | 5 (5=80-100%) | 5 (5=80-100%) | 5 (5=80-100%) | 4 (4=60-79%) | 5 (5=80-100%) | 1 (1=0-19%) | 5 (5=80-100%) | 5 (5=80-100%) | 5 (5=80-100%)
2 | Cn1c(=O)c(-c2c(C(F)(F)F)ccc(Cl)c2OCc2ccccc2)c(O)c2scnc21 [Compound 1.019] | 4 (4=60-79%) | 5 (5=80-100%) | 3 (3=40-59%) | 5 (5=80-100%) | 5 (5=80-100%) | 5 (5=80-100%) | 3 (3=40-59%) | 5 (5=80-100%) | 3 (3=40-59%) | 5 (5=80-100%) | 5 (5=80-100%) | 5 (5=80-100%)
3 | O=c1c(-c2c(Cl)ccc(Cl)c2OCc2ccccc2)c(O)c2scnc2n1CC(F)F [Compound 1.021] | 5 (5=80-100%) | 5 (5=80-100%) | 4 (4=60-79%) | 5 (5=80-100%) | 5 (5=80-100%) | 5 (5=80-100%) | 4 (4=60-79%) | 5 (5=80-100%) | 4 (4=60-79%) | 5 (5=80-100%) | 5 (5=80-100%) | 5 (5=80-100%)
4 | O=c1c(-c2c(F)ccc(Cl)c2OCc2ccccc2)c(O)c2scnc2n1CC(F)F [Compound 1.027] | 5 (5=80-100%) | 5 (5=80-100%) | 3 (3=40-59%) | 5 (5=80-100%) | 5 (5=80-100%) | 5 (5=80-100%) | 4 (4=60-79%) | 5 (5=80-100%) | 3 (3=40-59%) | 5 (5=80-100%) | 5 (5=80-100%) | 5 (5=80-100%)
5 | O=c1c(-c2c(C(F)(F)F)ccc(Cl)c2OCc2ccccc2)c(O)c2scnc2n1CC(F)F [Compound 1.029] | 4 (4=60-79%) | 5 (5=80-100%) | 3 (3=40-59%) | 5 (5=80-100%) | 4 (4=60-79%) | 5 (5=80-100%) | 2 (2=20-39%) | 5 (5=80-100%) | 2 (2=20-39%) | 5 (5=80-100%) | 5 (5=80-100%) | 5 (5=80-100%)
